From patent US20200101056A1, “USE OF ROCK INHIBITORS FOR PROMOTING SINONASAL EPITHELIAL CELL REPAIR” (priority 2018, published 2020)

Experiments:
Assay type in all cases: cell-based, human
[1] = test system: pNEC; assay: Pilot study of Y-27632 dose on epithelial repair in pNEC
Excerpt: pNECs were injured mechanically (3 wounds/well, 3 wells/condition), using a well-established, highly reproducible technique^32,34,37. After wounding, the cultures were washed to remove detached cells, and then randomly treated in either of the following conditions (performed in triplicate): 1) negative control: 0.5% (v/v) of LB, 2) exposure to SA exoproducts, (at both concentrations of 0.25% and 0.5% (v/v) SA filtrate), and 3) exposure to SA exoproducts (both concentrations of 0.25% and 0.5% (v/v) SA filtrate) and the ROCK inhibitor Y-27632 dihydrochloride (5 μM, Sigma-Aldrich®).
A mark on wells allowed us to capture images of the wounds at exactly the same place at t=0 h and t=6 h using an inverted microscope with a 4× objective (Nikon Eclipse™ TE 2000). Images were registered using AxioVision™ 4.8 software (Carl Zeiss, Jena, Germany) and then analyzed with Image J software (NIH, Bethesda, Md., USA) to measure areas at t=0 h and t=6 h of wound healing and then to calculate the repair rates (expressed in μm^2/h).
The effect of a potent Rho kinase (ROCK) inhibitor, Y-27632, on epithelial repair in pNECs exposed to SA exoproducts was assessed. It was first determined, in a pilot study, that 5 μM was the optimal dose for Y-27632 in pNEC.

[2] = test system: pNECs from CRSwNP patients; assay: Analysis of lamellipodial dynamics by kymograph, pNECs from CRSwNP patients; details: SA 0.5% + Y-27632 5 μM, 0-2 h and 2-4 h, CRSwNP pNECs (FIG. 6)
Protocol: Brightfield time-lapse series were made on pNECs from patients with CRSwNP and control subjects plated in 2-well silicone culture inserts (Ibidi #80209, Fitchburg, USA) using an inverted Axio ObserverZ1 microscope equipped with a CoolSNAP™ EZ CCD camera and a 10×/0.3 NA air objective lens, and then analyzed by AxioVision™ software.
Immediately prior to image acquisition, cells were treated with LB (control condition for SA) or LB+water (control condition for SA+Y-27632). Cells were then positioned into the incubation chamber (37° C., 5% CO2) and images were captured every minute for 2 h to observe cell protrusions and retractions. Then, cells were treated with either SA exoproducts (concentration of 0.5% (v/v)) or a mix of SA (concentration of 0.5% v/v) and Y-27632 (5 μM), with the recording pursued during the following 4 h.
A one pixel-wide line crossing the cell membrane perpendicularly to the lamellipodia was drawn, and this region was extracted from each image of the time-lapse series, as previously described by Choi et al.^38. […] Data derived from these segmented lines were generated using “read velocity tsp macro” of ImageJ and used to calculate the length and velocity of each protrusion. At least a total of 40-110 individual protrusion events per condition and at least 14 different cells were analyzed in 3 independent time-lapse series.

[3] = test system: pNECs monolayers from CRSwNP patients; assay: Wound healing assay (epithelial repair rate) of injured pNECs monolayers from CRSwNP patients; details: 6 h
Protocol: diagnosis was performed according to the 2004 AAO-HNS guidelines^31, and patients underwent ESS following failure of medical treatment. Control patients underwent ESS for cerebral spinal fluid leak or non-secreting pituitary adenomas. Exclusion criteria for both groups comprised immune deficiencies, neoplasia, ciliary dyskinesia, cystic fibrosis, and systemic immunosuppression. Tissues obtained during surgery at the level of anterior ethmoidal bulla (control) or the polyp itself ([…]) were immediately collected for subsequent cell isolation and culture. After recovery, pNECs were isolated following a standardized procedure^32-35. […] After 18 h, Fetal Bovine Serum was added to the solution to neutralize the protease-DNase activity, and pNECs were gently scraped off the remaining tissue. […] Images were registered using AxioVisionTM 4.8 software (Carl Zeiss, Jena, Germany) and then analyzed with Image J software (NIH, Bethesda, Md., USA) to measure areas at t=0 h and t=6 h of wound healing and then to calculate the repair rates (expressed in μm^2/h).

[4] = test system: nasal epithelia from CRSwNP patients; assay: Immunofluorescence of cytoskeleton and lamellipodial cell quantification at the wound edge, nasal epithelia from CRSwNP patients; details: 4 h
Protocol: pNECs were grown to confluency on coverslips (precision cover glasses thickness No. 1.5H, Marienfeld, Lauda-Konigshofen, Germany) coated with Purecol™. After injury, (3 mechanical wounds/coverslip), cell monolayers were washed and then treated with either: 1) LB (concentration of 0.5% (v/v)): negative control, 2) SA exoproducts (concentration of 0.5% (v/v) SA filtrate) and 3) SA exoproducts (concentration of 0.5% (v/v) SA filtrate) and Y-27632 (5 μM). After 4 h of repair, cell monolayers were fixed with 4% paraformaldehyde in PBS for 5 min, permeabilized with 0.1% Triton™ X-100 in PBS for 10 min. After blocking (in 1% BSA in PBS for at least 1h at 4° C.), fixed cells were incubated with the primary anti-β-tubulin antibody (1:1000 in PBS+BSA1%, Millipore, Etobicoke, Canada) for 1 h at room temperature, and then with Alexa Fluor®-488 conjugated goat anti-mouse antibody secondary antibody (1:2000 in PBS+BSA1%,1 h, room temperature Thermo Fischer Scientific, Waltham, USA). F-actin was stained with Phalloidin-Alexa Fluor® 594 (1 unit, Thermo Fischer Scientific) (in PBS+BSA1%, for 1 h at room temperature) and nuclei with DAPI (1:1000 in PBS+BSA1%, for 5 min). Coverslips were mounted with ProLong® Gold Antifade Reagent (Molecular Probes, Eugene, USA) on SuperFrost™ glass slides (Thermo Fisher Scientific). Images were acquired with an inverted confocal microscope (TCS SP5, Leica Microsystems, Wetzlar, Germany) using an oil-immersion objective 63×/1.4. On immunofluorescence images, cells at the wound edge were classified according to the categories “with” or “without” lamellipodia as well as “ambiguous morphology” (see FIG. 10)^39. Percentages of cells in each category were then calculated.

[5] = CRSwNP, SA 0.5% + vehicle (SA) or SA 0.5% + Y-27632 5 μM (SA+Y) (FIG. 7B)

Question: For `C[C@@H](N)[C@H]1CC[C@H](C(=O)Nc2ccncc2)CC1` [Y-27632], which “increase in epithelial repair rate” value ([1]; 5 μM, in LB condition) is on record?
Answer: 23%

Question: And the “effect of increasing concentrations on pNECs” value ([1]; concentrations above 5 μM)?
Answer: altered migration and induced pNECs apoptosis

Question: What about the “optimal dose in pNEC” value ([1]; pilot study) of the same molecule?
Answer: 5 μM

Question: What about the “length and velocity of protrusions after SA+Y vs. LB” value [2] of the same molecule?
Answer: non-significant

Question: And the “increase of repair rates compared to corresponding SA condition in the absence of Y-27632” value ([3]; Y-27632 5 μM co-cultured with SA 0.25%)?
Answer: 1.86 fold

Question: What about the “increase of repair rates compared to corresponding SA condition in the absence of Y-27632” value ([3]; Y-27632 5 μM with SA 0.5%) of the same molecule?
Answer: 2.22 fold

Question: And the cells with lamellipodia [4, 5]?
Answer: 65%

Question: And the cells without lamellipodia [4, 5]?
Answer: 8%

Question: And the “lamellipodial extensions at the leading edge (cytoskeleton organization)” value ([4]; SA 0.5% + Y-27632 5 μM, CRSwNP (FIG. 7A))?
Answer: partially restored lamellipodial extensions
